pIC50: −log10 of the molar value. Counter-ions that a name gives are not always drawn.
Tests used:
[1] = target: T1, human JAK1 kinase domain (JH1) (Homo sapiens, UniProt P23458); assay: JH1 biochemical assay for JAK1 (ADP-Glo kinase assay, recombinant JH1 catalytic domain, JAK3-342 peptide, 35 μM ATP)
T1 construct: recombinantly generated catalytic kinase (also known as JH1) domain of human JAK1, JAK2, JAK3 and TYK2
In short: (§1)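 ADP-Glo luminescence with 50 μM peptide and 100 min reactions: JAK1 4 nM with JAK3-342 peptide; JAK2, JAK3 and TYK2 at 0.2, 0.3 and 2 nM with JAK3-974 peptide. Compounds tested from 10 or 1 μM top, 11 points, 3-fold. IC50 from a 4-parameter logistic fit of normalized activity.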

[2] = target: T2, human JAK3 kinase domain (JH1) (Homo sapiens, UniProt P52333); assay: JH1 biochemical assay for JAK3 (ADP-Glo kinase assay, recombinant JH1 catalytic domain, JAK3-974 peptide, 4 μM ATP)
T2 construct: recombinantly generated catalytic kinase (also known as JH1) domain of human JAK1, JAK2, JAK3 and TYK2
T2 sequence (P52333 822-1111 limits assumed): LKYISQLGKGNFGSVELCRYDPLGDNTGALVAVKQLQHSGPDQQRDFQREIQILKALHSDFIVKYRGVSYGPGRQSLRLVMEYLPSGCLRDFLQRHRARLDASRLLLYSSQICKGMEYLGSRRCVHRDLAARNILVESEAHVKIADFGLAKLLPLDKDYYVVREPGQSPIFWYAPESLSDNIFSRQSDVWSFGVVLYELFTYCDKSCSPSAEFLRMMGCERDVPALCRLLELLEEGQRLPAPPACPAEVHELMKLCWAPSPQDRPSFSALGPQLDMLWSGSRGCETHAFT
In short: as §1

[3] = target: Tyk2 kinase activity on STAT4 in NK92 cells (Homo sapiens, UniProt P29597); assay: pSTAT4 cell assay (MSD; NK92 cells, 30 ng/mL IL2 stimulation); format: cell-based; settings: 30 ng/mL IL2, 15 minutes
Chain of Tyk2 kinase activity on STAT4 in NK92 cells (P29597 whole entry): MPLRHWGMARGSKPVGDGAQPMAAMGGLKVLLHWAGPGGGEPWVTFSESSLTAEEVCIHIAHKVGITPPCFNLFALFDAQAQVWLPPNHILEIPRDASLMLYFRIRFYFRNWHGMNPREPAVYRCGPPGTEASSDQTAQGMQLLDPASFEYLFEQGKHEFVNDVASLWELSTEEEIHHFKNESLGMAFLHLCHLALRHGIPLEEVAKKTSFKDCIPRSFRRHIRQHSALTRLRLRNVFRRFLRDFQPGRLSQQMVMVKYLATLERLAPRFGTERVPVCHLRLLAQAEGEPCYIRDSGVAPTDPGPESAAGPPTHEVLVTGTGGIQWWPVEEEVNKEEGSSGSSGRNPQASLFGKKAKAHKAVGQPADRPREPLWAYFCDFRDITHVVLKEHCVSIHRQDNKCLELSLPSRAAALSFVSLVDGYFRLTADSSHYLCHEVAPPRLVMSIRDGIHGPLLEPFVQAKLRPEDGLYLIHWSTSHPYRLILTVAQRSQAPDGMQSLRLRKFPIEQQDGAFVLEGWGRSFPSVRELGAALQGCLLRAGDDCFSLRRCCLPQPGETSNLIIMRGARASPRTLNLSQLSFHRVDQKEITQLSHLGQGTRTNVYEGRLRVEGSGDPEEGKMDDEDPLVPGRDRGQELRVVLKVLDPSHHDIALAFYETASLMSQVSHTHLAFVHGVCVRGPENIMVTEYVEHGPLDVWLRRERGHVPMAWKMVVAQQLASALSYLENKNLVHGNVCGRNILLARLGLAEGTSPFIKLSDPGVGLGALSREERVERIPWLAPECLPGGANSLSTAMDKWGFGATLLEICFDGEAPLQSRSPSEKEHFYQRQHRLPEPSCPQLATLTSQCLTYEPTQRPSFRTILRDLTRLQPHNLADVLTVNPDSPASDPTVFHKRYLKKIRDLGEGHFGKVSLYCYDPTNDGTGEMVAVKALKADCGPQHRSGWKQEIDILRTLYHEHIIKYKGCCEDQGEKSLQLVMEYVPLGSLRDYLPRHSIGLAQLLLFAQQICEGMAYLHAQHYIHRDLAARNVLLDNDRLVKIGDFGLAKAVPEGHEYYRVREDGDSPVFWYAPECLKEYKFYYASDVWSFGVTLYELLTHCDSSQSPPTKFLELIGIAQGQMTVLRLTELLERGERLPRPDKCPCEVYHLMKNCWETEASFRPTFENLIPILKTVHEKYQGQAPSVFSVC
In short: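 Serum-starved NK92 cells were preincubated 1 hr with compound (10-point, four-fold dilutions from 10 μM), then stimulated with 30 ng/mL IL2 for 15 minutes. Lysates were read on an MSD plate assay using anti-STAT4 antibodies, and IC50 came from a 4-parameter logistic fit of normalized percent activity.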

[4] = target: JAK1 kinase activity on STAT3 in TF1 cells (Homo sapiens, UniProt P23458); assay: pSTAT3 cell assay (MSD; TF1 cells, 30 ng/mL IL-6 stimulation); format: cell-based; settings: 30 ng/mL IL-6, 15 minutes
Chain of JAK1 kinase activity on STAT3 in TF1 cells (P23458 whole entry): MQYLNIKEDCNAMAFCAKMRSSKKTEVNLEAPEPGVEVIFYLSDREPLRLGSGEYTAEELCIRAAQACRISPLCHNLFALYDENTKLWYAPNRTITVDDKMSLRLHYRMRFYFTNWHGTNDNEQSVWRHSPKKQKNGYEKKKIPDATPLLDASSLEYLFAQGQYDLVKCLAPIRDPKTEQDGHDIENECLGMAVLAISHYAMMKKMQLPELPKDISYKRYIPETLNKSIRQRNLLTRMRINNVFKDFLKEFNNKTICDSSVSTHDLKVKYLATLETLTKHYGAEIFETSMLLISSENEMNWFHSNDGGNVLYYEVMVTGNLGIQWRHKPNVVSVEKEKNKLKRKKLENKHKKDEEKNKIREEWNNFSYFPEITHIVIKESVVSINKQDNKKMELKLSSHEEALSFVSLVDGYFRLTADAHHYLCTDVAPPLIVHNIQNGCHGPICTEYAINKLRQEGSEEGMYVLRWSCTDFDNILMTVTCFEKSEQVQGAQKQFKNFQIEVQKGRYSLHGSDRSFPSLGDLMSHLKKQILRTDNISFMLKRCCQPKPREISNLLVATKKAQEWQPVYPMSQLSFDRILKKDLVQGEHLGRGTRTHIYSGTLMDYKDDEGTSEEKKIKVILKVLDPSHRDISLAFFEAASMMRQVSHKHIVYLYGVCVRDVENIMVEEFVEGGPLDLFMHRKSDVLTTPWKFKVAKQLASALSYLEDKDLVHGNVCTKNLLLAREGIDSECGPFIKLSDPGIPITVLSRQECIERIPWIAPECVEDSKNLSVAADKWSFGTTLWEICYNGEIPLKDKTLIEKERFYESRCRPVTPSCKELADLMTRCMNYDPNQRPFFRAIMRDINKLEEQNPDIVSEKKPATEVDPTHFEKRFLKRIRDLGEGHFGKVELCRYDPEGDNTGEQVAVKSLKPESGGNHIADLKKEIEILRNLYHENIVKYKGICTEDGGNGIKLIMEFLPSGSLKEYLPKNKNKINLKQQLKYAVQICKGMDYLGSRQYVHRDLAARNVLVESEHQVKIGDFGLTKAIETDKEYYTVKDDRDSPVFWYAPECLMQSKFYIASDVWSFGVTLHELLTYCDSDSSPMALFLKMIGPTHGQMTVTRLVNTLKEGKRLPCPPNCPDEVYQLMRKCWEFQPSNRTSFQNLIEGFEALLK
In short: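 Serum-starved TF1 cells with endogenous JAK1/STAT3 were pretreated 1 h with compound in a 10-point four-fold dilution series from 10 μM, then stimulated with 30 ng/mL IL-6 for 15 min. pSTAT3 in lysates was quantified by MSD immunoassay, and IC50 came from 4-parameter logistic fits.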

[5] = target: JAK2 kinase activity on STAT5 in TF1 cells (Homo sapiens, UniProt O60674); assay: pSTAT5 cell assay (MSD; TF1 cells, 30 ng/mL IL-3 stimulation); format: cell-based; settings: 30 ng/mL IL-3, 15 minutes
Chain of JAK2 kinase activity on STAT5 in TF1 cells (O60674 whole entry): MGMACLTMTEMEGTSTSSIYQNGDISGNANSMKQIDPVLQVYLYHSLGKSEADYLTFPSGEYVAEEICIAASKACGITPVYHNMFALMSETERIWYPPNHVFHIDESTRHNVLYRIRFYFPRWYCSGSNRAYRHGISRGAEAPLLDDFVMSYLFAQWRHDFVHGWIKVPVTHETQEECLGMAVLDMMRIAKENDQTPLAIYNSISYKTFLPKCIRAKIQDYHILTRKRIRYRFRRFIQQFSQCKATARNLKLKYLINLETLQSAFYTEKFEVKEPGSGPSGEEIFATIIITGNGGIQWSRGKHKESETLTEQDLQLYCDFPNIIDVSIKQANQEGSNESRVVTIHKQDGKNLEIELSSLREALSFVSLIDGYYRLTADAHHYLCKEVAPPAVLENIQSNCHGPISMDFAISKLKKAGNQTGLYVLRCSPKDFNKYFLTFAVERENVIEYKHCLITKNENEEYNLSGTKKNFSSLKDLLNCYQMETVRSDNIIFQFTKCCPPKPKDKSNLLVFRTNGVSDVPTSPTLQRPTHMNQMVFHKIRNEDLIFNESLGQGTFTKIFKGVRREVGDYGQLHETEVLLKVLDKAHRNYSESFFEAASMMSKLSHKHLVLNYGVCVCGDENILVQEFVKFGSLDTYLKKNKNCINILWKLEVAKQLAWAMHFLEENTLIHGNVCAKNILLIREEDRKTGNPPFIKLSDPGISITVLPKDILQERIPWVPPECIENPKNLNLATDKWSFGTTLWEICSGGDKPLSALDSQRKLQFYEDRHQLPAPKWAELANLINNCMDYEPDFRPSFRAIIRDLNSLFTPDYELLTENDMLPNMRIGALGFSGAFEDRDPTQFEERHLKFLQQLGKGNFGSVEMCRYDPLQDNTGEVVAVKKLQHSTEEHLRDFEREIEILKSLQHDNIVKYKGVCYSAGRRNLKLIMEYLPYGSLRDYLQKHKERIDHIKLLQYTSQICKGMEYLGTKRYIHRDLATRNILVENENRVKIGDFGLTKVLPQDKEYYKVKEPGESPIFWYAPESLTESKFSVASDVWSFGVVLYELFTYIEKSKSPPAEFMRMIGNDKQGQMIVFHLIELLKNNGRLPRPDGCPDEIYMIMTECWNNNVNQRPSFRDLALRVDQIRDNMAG
In short: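 Serum-starved TF1 cells with native JAK2/STAT5 were pretreated 1 h with compound (10-point four-fold dilutions from 10 μM), then stimulated 15 min with 30 ng/mL IL-3. pSTAT5 in lysates quantified by MSD immunoassay; normalized percent activity fitted to a 4-parameter logistic curve for IC50.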

[6] = target: T3, human JAK2 kinase domain (JH1) (Homo sapiens, UniProt O60674); assay: JH1 biochemical assay for JAK2 (ADP-Glo kinase assay, recombinant JH1 catalytic domain, JAK3-974 peptide, 15 μM ATP)
T3 construct: recombinantly generated catalytic kinase (also known as JH1) domain of human JAK1, JAK2, JAK3 and TYK2
T3 sequence (O60674 849-1124 limits assumed): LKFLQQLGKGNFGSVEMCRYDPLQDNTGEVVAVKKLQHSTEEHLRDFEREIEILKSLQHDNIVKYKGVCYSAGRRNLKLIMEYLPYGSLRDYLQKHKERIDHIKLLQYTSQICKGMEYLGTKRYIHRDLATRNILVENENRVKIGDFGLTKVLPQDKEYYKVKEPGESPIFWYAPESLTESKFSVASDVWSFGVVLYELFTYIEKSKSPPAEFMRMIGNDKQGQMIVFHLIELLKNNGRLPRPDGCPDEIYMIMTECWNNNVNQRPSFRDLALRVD
In short: as §1

[7] = target: T4, human TYK2 kinase domain (JH1) (Homo sapiens, UniProt P29597); assay: JH1 biochemical assay for TYK2 (ADP-Glo kinase assay, recombinant JH1 catalytic domain, JAK3-974 peptide, 10 μM ATP)
T4 construct: recombinantly generated catalytic kinase (also known as JH1) domain of human JAK1, JAK2, JAK3 and TYK2
T4 sequence (P29597 897-1176 limits assumed): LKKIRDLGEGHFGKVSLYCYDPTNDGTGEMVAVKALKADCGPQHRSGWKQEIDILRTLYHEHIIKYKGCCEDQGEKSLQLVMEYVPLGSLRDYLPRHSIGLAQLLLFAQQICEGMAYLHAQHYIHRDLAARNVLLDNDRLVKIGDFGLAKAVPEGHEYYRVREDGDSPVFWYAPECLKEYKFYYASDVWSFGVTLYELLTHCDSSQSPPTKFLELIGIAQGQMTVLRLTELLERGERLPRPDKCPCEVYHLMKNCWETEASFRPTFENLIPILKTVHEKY
In short: as §1

T1 sequence (P23458 875-1153 limits assumed): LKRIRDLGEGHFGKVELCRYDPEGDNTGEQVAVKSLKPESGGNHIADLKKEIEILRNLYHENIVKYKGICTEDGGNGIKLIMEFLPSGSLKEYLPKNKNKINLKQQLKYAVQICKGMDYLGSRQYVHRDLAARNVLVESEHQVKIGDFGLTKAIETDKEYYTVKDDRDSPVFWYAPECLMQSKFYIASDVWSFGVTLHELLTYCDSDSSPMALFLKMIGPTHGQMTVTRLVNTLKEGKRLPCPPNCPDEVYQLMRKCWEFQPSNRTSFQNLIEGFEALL

| Compound | pIC50 ([1]; JAK1 JH1, ADP-Glo) | pIC50 ([2]; JAK3 JH1, ADP-Glo) | pIC50 [3] | pIC50 [4] | pIC50 [5] | pIC50 ([6]; JAK2 JH1, ADP-Glo) | pIC50 ([7]; TYK2 JH1, ADP-Glo) | pIC50 ([1]; JH1 kinase domain, ADP-Glo) | pIC50 ([2]; JH1 kinase domain, ADP-Glo) | pIC50 ([6]; JH1 kinase domain, ADP-Glo) | pIC50 ([7]; JH1 kinase domain, ADP-Glo) |
| --- | --- | --- | --- | --- | --- | --- | --- | --- | --- | --- | --- |
| Cc1c(-c2cn3ncc(F)c3c(N3C[C@@H](C)[C@@](C#N)(C4CC4)C3=O)n2)cnn1C [Example 221, (3R,4S)-3-cyclopropyl-1-(6-(1,5-dimethyl-1H-pyrazol-4-yl)-3-fluoropyrazolo[1,5-a]pyrazin-4-yl)-4-methyl-2-oxopyrrolidine-3-carbonitrile] | 6.00 to 7.00 | 6.00 to 7.00 | < 7.00 | 5.30 to 6.00 | < 5.00 | 5.30 to 6.00 | 7.70 to 8.30 | – | – | – | – |
| C[C@@H]1CN(c2nc(-c3ccc4c(cnn4C)c3)cn3nccc23)C(=O)[C@]1(C#N)C1CC1 [Example 225, (3R,4S)-3-cyclopropyl-4-methyl-1-(6-(1-methyl-1H-indazol-5-yl)pyrazolo[1,5-a]pyrazin-4-yl)-2-oxopyrrolidine-3-carbonitrile trifluoroacetate] | > 7.00 | > 7.00 | < 7.00 | 5.30 to 6.00 | 5.30 to 6.00 | 6.00 to 7.00 | > 8.30 | – | – | – | – |
| C[C@@H]1CN(c2nc(-c3cnn([C@H]4C[C@H](C#N)C4)c3)cn3ncc(F)c23)C(=O)[C@]1(C#N)C1CC1 [Example 293, (3R,4S)-1-(6-(1-((1r,3R)-3-cyanocyclobutyl)-1H-pyrazol-4-yl)-3-fluoropyrazolo[1,5-a]pyrazin-4-yl)-3-cyclopropyl-4-methyl-2-oxopyrrolidine-3-carbonitrile] | > 7.00 | > 7.00 | 7.30 to 7.70 | 6.00 to 7.00 | 6.00 to 7.00 | > 7.00 | > 8.30 | – | – | – | – |
| C[C@@H]1CN(c2nc(-c3ccc(O)nc3)cn3nccc23)C(=O)[C@]1(C#N)C1CC1 [Example 267, (3R,4S)-3-cyclopropyl-1-(6-(6-hydroxypyridin-3-yl)pyrazolo[1,5-a]pyrazin-4-yl)-4-methyl-2-oxopyrrolidine-3-carbonitrile trifluoroacetate] | > 7.00 | > 7.00 | 7.00 to 7.30 | 6.00 to 7.00 | 6.00 to 7.00 | 6.00 to 7.00 | > 8.30 | – | – | – | – |
| C[C@@H]1CN(c2nc(-c3cnn(C(F)F)c3)cc3ncsc23)C(=O)[C@]1(C#N)C1CC1 [Example 353, (3R,4S)-3-cyclopropyl-1-(6-(1-(difluoromethyl)-1H-pyrazol-4-yl)thiazolo[5,4-c]pyridin-4-yl)-4-methyl-2-oxopyrrolidine-3-carbonitrile] | > 7.00 | > 7.00 | 7.30 to 7.70 | > 7.00 | 6.00 to 7.00 | > 7.00 | > 8.30 | – | – | – | – |
| C[C@@H]1CN(c2ccnn3cc(-c4ccc(CC#N)cn4)cc23)C(=O)[C@]1(C#N)C1CC1 [Example 127, (3R,4S)-1-(6-(5-(cyanomethyl)pyridin-2-yl)pyrrolo[1,2-b]pyridazin-4-yl)-3-cyclopropyl-4-methyl-2-oxopyrrolidine-3-carbonitrile trifluoroacetate] | – | – | < 7.00 | 5.00 to 5.30 | < 5.00 | – | – | 6.00 to 7.00 | 6.00 to 7.00 | 6.00 to 7.00 | 7.70 to 8.30 |
| C[C@@H]1CN(c2ccnc3cc(-c4cnn(C)c4)oc23)C(=O)[C@]1(C#N)C1CC1 [Example 268, (3R,4S)-3-cyclopropyl-4-methyl-1-(2-(1-methyl-1H-pyrazol-4-yl)furo[3,2-b]pyridin-7-yl)-2-oxopyrrolidine-3-carbonitrile] | 6.00 to 7.00 | 6.00 to 7.00 | 7.00 to 7.30 | 5.30 to 6.00 | < 5.00 | 6.00 to 7.00 | 7.70 to 8.30 | – | – | – | – |
| C[C@@H]1CN(c2nc(-c3ccnc(C(F)(F)F)c3)cn3nccc23)C(=O)[C@]1(C#N)C1CC1 [Example 234, (3R,4S)-3-cyclopropyl-4-methyl-2-oxo-1-(6-(2-(trifluoromethyl)pyridin-4-yl)pyrazolo[1,5-a]pyrazin-4-yl)pyrrolidine-3-carbonitrile trifluoroacetate] | 6.00 to 7.00 | 6.00 to 7.00 | < 7.00 | < 5.00 | < 5.00 | 6.00 to 7.00 | 7.70 to 8.30 | – | – | – | – |
| C[C@@H]1CN(c2nc(-c3cnn(C4CCOCC4)c3)cn3ncc(F)c23)C(=O)[C@]1(C#N)C1CC1 [Example 218, (3R,4S)-3-cyclopropyl-1-(3-fluoro-6-(1-(tetrahydro-2H-pyran-4-yl)-1H-pyrazol-4-yl)pyrazolo[1,5-a]pyrazin-4-yl)-4-methyl-2-oxopyrrolidine-3-carbonitrile] | > 7.00 | > 7.00 | 7.00 to 7.30 | 6.00 to 7.00 | 6.00 to 7.00 | > 7.00 | > 8.30 | – | – | – | – |
| Cc1nn(C)cc1-c1cc2c(N3C[C@@H](C)[C@@](C#N)(C4CC4)C3=O)ccnn2c1 [Example 165, (3R,4S)-3-cyclopropyl-1-(6-(1,3-dimethyl-1H-pyrazol-4-yl)pyrrolo[1,2-b]pyridazin-4-yl)-4-methyl-2-oxopyrrolidine-3-carbonitrile] | – | – | 7.30 to 7.70 | 5.30 to 6.00 | 5.00 to 5.30 | – | – | 6.00 to 7.00 | 6.00 to 7.00 | 6.00 to 7.00 | > 8.30 |
| CC(=O)Nc1cncc(-c2cc3c(N4C[C@@H](C)[C@@](C#N)(C5CC5)C4=O)ccnn3c2)c1 [Example 90, N-(5-(4-((3R,4S)-3-cyano-3-cyclopropyl-4-methyl-2-oxopyrrolidin-1-yl)pyrrolo[1,2-b]pyridazin-6-yl)pyridin-3-yl)acetamide] | – | – | < 7.00 | 5.00 to 5.30 | < 5.00 | – | – | 6.00 to 7.00 | 6.00 to 7.00 | 6.00 to 7.00 | 7.70 to 8.30 |
| C[C@@H]1CN(c2nc(-c3cnn([C@H]4C[C@@](F)(C#N)C4)c3)cn3ncc(F)c23)C(=O)[C@]1(C#N)C1CC1 [Example 309, (3R,4S)-1-(6-(1-((1r,3R)-3-cyano-3-fluorocyclobutyl)-1H-pyrazol-4-yl)-3-fluoropyrazolo[1,5-a]pyrazin-4-yl)-3-cyclopropyl-4-methyl-2-oxopyrrolidine-3-carbonitrile] | > 7.00 | > 7.00 | < 7.00 | 5.00 to 5.30 | 5.30 to 6.00 | > 7.00 | > 8.30 | – | – | – | – |
| C[C@@H]1CN(c2ccnn3cc(-c4cn(C5COC5)nc4F)cc23)C(=O)[C@]1(C#N)C1CC1 [Example 321, (3R,4S)-3-cyclopropyl-1-(6-(3-fluoro-1-(oxetan-3-yl)-1H-pyrazol-4-yl)pyrrolo[1,2-b]pyridazin-4-yl)-4-methyl-2-oxopyrrolidine-3-carbonitrile] | 6.00 to 7.00 | 6.00 to 7.00 | 7.00 to 7.30 | 5.30 to 6.00 | 5.30 to 6.00 | > 7.00 | > 8.30 | – | – | – | – |
| Cn1cc(-c2cc3c(N4CC[C@@](C#N)(C5CC5)C4=O)ccnn3c2)c(F)n1 [Example 12, (S)-3-cyclopropyl-1-(6-(3-fluoro-1-methyl-1H-pyrazol-4-yl)pyrrolo[1,2-b]pyridazin-4-yl)-2-oxopyrrolidine-3-carbonitrile] | – | – | < 7.00 | 5.30 to 6.00 | < 5.00 | – | – | 6.00 to 7.00 | 6.00 to 7.00 | 6.00 to 7.00 | 7.70 to 8.30 |
| C[C@@H]1CN(c2nc(-c3cnn(-c4ccccn4)c3)cn3nccc23)C(=O)[C@]1(C#N)C1CC1 [Example 296, (3R,4S)-3-cyclopropyl-4-methyl-2-oxo-1-(6-(1-(pyridin-2-yl)-1H-pyrazol-4-yl)pyrazolo[1,5-a]pyrazin-4-yl)pyrrolidine-3-carbonitrile] | > 7.00 | > 7.00 | 7.30 to 7.70 | 6.00 to 7.00 | 5.30 to 6.00 | 6.00 to 7.00 | > 8.30 | – | – | – | – |
| C[C@@H]1CN(c2nc(-c3cnn(CC4(C#N)CC4)c3)cn3ncc(F)c23)C(=O)[C@]1(C#N)C1CC1 [Example 302, (3R,4S)-1-(6-(1-((1-cyanocyclopropyl)methyl)-1H-pyrazol-4-yl)-3-fluoropyrazolo[1,5-a]pyrazin-4-yl)-3-cyclopropyl-4-methyl-2-oxopyrrolidine-3-carbonitrile] | > 7.00 | > 7.00 | 7.00 to 7.30 | 6.00 to 7.00 | 5.30 to 6.00 | > 7.00 | > 8.30 | – | – | – | – |

Source: patent US20260297085A1, “1 H-PYRROLO[2,3-B]PYRIDIN-4-YL]-2-OXOPYRROLIDINE-3-CARBONITRILE DERIVATIVES AS TYROSINE KINASE 2 (TYK2) INHIBITORS FOR THE TREATMENT OF INFLAMMATORY DISEASES” (BIOGEN MA INC., priority 2023, published 2026)
